Values quoted from earlier work, collected in patent US20230270735A1, “TOPICAL FORMULATION” (INCANTHERA (R&D) LTD, priority 2020, published 2023).
Like-named read-outs stand apart in the source and are kept apart here.

How the values were obtained:
PARP-1 = PARP-1 (Homo sapiens, UniProt P09874); conditions: at a concentration of 50 μmol L^−1, in vitro
[1] = not given; remark: listed apart in the source
actinic keratoses (AK) = conditions: 4 months

Chain of PARP-1 (P09874 whole entry, species assumed): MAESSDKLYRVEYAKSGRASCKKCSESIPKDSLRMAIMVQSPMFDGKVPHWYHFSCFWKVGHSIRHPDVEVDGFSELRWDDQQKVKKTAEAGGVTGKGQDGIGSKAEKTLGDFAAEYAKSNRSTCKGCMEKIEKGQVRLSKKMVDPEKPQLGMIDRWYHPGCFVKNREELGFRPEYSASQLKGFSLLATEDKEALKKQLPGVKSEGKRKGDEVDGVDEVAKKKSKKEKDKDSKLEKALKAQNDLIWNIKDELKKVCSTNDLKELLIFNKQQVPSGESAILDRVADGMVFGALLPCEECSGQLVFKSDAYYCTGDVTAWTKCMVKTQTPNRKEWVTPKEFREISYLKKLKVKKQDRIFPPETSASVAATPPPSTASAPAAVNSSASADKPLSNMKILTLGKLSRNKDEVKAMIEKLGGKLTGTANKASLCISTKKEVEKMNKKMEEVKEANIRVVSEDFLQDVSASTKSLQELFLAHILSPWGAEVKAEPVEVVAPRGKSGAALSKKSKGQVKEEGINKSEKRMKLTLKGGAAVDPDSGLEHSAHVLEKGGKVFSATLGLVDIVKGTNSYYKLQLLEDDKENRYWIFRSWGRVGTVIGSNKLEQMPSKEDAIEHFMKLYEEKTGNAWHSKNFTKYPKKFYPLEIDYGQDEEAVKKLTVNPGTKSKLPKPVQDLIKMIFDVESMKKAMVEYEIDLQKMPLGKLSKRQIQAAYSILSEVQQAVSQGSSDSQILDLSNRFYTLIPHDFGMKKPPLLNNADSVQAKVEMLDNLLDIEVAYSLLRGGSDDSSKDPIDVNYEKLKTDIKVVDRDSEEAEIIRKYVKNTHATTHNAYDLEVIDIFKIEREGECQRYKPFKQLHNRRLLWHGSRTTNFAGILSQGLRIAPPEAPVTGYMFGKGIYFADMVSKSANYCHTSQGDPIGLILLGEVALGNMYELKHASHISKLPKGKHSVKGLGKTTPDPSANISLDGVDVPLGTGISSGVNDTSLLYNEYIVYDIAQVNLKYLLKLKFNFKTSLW

NC(=O)c1cccnc1 [NAM, pyridine-3-carboxamide]
range of peak plasma concentrations (1 g (~0.5 g/M^2) oral dose, healthy volunteers): 81 to 158 µmol/L
peak plasma concentrations (oral 500 mg, extrapolated by Malesu et al. (22) from Stratford data): ~80 µmol/L
inhibition of PARP-1 (PARP-1): 60%
Log P (octanol/water) [1]: −0.4
rate of new nonmelanoma skin cancers lowered compared with placebo (nonmelanoma skin cancers; oral 500 mg twice a day, 12 months): 23%
CD4^+ helper T cells and cytotoxic CD8^+ T cells in the tumour microenvironment of melanomas, compared with placebo (nonmelanoma skin cancers; oral NAM group): significant increase
systemic adverse effects (nonmelanoma skin cancers; oral doses 500-1,000 mg/day): without significant systemic adverse effects
reduction in AK versus baseline (actinic keratoses (AK); study 1, oral 500 mg twice daily): 35%
reduction in AK versus baseline (actinic keratoses (AK); study 2, oral 500 mg once daily): 29%
